Active and inactive are the calls of the source.
Columns and labels:
Beta-galactosidase = Beta-galactosidase (Escherichia coli, UniProt Q8VNN2); assay: beta-galactosidase enzyme inhibitors and activators, dose response, artefact control for CCR6 antagonist project, biochemical, E. coli enzyme, set 3 (AID 504712); format: functional
[1] = biological target: T1, Probable nicotinate-nucleotide adenylyltransferase (Staphylococcus aureus (strain N315), UniProt P65502); format: functional, Staphylococcus aureus subsp. aureus N315;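 for IC50 Mean: confirmatory dose-response retesting of NadD inhibitor hits first found in an ultra-high-throughput screen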
[2] = biological target: T1, Probable nicotinate-nucleotide adenylyltransferase; format: functional, Staphylococcus aureus subsp. aureus N315; settings: read-out: IC50_Mean
[3] = biological target: DNA dC->dU-editing enzyme APOBEC-3G (Homo sapiens, UniProt Q9HC16); format: functional;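 note: Dose-response counterscreen measuring inhibition of APOBEC3G DNA deaminase activity, run while confirming APOBEC3A inhibitors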
[4] = biological target: DNA dC->dU-editing enzyme APOBEC-3A (Homo sapiens, UniProt P31941); assay: Dose Response confirmation of small molecule APOBEC3A DNA Deaminase Inhibitors via a fluorescence-based single-stranded DNA deaminase assay. [Related pubchem assays (depositor defined):AID493011, AID493024]; format: functional
[5] = A cytotoxicity screen of small molecule inhibitors of the PhoP region in Salmonella typhi identified in the primary screen. [Related pubchem assays: 1850, 1864, 1985 ]; format: functional
Coagulation factor XII = biological target: T2, Coagulation factor XII (Homo sapiens, UniProt P00748); format: functional;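 note: activated factor XIIa alpha cleaving a fluorogenic AMC peptide substrate; inhibitor potency from loss of enzyme activity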
T2 sequence (P00748 whole entry): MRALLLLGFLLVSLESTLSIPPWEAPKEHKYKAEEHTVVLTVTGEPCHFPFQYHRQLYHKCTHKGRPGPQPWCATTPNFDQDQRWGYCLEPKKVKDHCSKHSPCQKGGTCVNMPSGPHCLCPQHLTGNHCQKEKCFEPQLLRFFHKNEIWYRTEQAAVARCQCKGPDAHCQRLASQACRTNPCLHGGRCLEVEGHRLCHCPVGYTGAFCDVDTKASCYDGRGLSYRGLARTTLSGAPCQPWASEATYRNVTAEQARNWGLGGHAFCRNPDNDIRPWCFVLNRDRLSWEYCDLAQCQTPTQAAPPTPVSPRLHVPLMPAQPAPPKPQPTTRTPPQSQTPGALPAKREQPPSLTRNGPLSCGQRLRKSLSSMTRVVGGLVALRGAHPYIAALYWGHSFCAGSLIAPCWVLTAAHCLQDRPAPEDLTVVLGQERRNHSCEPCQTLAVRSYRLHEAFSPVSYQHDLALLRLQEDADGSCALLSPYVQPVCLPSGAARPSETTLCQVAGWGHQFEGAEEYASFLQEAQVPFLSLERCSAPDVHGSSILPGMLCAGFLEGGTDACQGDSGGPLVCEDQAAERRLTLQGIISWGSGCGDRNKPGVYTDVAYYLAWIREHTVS

cells [6] = format: functional, cell-based
cells [7] = format: functional, cell-based; remark: listed apart in the source
[8] = biological target: T3, DNA repair and recombination protein RAD54-like (Homo sapiens, UniProt Q92698); assay: inhibitors of human RAD54 branch migration, confirmation, biochemical, fluorescence, cherry-picked samples, dose series (AID 651657); format: functional
T3 sequence (Q92698 whole entry): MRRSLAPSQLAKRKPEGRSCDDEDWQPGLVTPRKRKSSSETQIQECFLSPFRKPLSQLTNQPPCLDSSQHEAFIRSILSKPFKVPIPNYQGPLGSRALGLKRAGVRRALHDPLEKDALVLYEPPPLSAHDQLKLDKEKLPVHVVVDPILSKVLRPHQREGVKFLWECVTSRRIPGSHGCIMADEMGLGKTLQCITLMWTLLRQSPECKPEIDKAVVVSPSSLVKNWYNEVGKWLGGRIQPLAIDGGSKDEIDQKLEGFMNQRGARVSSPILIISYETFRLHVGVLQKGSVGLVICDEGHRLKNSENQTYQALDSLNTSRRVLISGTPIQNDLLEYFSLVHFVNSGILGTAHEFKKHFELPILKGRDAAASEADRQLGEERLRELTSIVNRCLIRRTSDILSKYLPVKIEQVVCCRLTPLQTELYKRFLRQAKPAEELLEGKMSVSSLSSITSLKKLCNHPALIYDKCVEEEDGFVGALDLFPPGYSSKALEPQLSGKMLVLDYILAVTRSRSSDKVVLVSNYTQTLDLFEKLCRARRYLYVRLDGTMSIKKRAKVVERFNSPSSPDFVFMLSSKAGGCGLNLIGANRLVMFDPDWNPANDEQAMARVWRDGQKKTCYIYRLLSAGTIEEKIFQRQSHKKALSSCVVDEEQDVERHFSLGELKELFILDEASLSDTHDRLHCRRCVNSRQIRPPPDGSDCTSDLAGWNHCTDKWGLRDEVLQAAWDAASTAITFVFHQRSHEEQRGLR

Mucolipin-3 = biological target: T4, Mucolipin-3 (Homo sapiens, UniProt Q8TDD5); assay: Dose response cell-based high-throughput screening assay for agonists of the transient receptor potential channel ML3 (TRPML3). [Related pubchem assays: 1526, 1424, 1448 ]; format: functional
T4 sequence (Q8TDD5 whole entry): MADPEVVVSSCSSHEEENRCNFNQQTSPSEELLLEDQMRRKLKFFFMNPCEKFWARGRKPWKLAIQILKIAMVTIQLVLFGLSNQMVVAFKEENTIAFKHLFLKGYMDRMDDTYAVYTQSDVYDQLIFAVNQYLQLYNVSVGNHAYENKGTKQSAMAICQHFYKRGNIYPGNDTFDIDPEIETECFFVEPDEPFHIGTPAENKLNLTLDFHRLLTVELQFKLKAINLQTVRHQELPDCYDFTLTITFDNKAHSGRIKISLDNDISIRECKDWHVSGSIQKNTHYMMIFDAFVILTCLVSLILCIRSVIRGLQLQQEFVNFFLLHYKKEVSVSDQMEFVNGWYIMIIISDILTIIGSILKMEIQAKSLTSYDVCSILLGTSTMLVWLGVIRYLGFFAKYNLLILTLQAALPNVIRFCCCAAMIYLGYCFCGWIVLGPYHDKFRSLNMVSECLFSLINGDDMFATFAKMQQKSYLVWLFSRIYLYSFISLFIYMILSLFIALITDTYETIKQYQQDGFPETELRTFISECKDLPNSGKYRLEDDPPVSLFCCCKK

Ion channel NompC = Ion channel NompC (Danio rerio, UniProt Q7T1G6); assay: Fluorescence counterscreen assay for TRPML3 agonists: dose response cell-based high-throughput screening assay to identify agonists of the transient receptor potential channel N1 (TRPN1). [Related pubchem assays: 1526, 1424, 1448 ]; format: functional
cells [9] = format: functional
[10] = Vero E6 cell cytotoxicity, dose response, cytotoxicity control for non-replicating M. tuberculosis project, secondary assay (AID 492998); format: functional, VeroE6; settings: Vero C1008
HEK293 [11] = assay: cells; format: functional, cell-based; settings: Homo sapiens
HEK293 [12] = assay: NOD2 signaling inhibitors in MDP-stimulated cells, cell-based, uHTS, luminescence (AID 2001); format: functional; settings: Homo sapiens
HEK293 [13] = assay: NOD1 signaling inhibitors, primary screen, cell-based, luminescence, uHTS (AID 1578); format: functional; settings: Homo sapiens
HEK293 [14] = assay: cells; format: functional, cell-based; settings: Homo sapiens; remark: listed apart in the source
Fatty acid synthase [15] = biological target: T5, Fatty acid synthase (Homo sapiens, UniProt P49327); assay: FAS thioesterase domain inhibitors, dose response, biochemical, kinetic fluorescence intensity (AID 624326); format: functional;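 note: rate of fluorescence rise from hydrolysis of a fluorogenic O-methyl fluorescein ester substrate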
Fatty acid synthase [16] = biological target: T5, Fatty acid synthase; assay: FAS thioesterase domain inhibitors, dose response, biochemical, endpoint fluorescence intensity, uHTS hits (AID 624327); format: functional;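 note: fluorescence from hydrolysis of an O-methyl fluorescein acyl ester substrate by the enzyme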
Aminopeptidase N = biological target: T6, Aminopeptidase N (Plasmodium falciparum FcB1/Columbia, UniProt O96935); assay: P. falciparum M1AAP inhibitors, biochemical, fluorogenic H-Leu-NHMec substrate, 1536-well (AID 1445); parameters: species or system Plasmodium falciparum 3D7, 3D7
T6 sequence (O96935 whole entry): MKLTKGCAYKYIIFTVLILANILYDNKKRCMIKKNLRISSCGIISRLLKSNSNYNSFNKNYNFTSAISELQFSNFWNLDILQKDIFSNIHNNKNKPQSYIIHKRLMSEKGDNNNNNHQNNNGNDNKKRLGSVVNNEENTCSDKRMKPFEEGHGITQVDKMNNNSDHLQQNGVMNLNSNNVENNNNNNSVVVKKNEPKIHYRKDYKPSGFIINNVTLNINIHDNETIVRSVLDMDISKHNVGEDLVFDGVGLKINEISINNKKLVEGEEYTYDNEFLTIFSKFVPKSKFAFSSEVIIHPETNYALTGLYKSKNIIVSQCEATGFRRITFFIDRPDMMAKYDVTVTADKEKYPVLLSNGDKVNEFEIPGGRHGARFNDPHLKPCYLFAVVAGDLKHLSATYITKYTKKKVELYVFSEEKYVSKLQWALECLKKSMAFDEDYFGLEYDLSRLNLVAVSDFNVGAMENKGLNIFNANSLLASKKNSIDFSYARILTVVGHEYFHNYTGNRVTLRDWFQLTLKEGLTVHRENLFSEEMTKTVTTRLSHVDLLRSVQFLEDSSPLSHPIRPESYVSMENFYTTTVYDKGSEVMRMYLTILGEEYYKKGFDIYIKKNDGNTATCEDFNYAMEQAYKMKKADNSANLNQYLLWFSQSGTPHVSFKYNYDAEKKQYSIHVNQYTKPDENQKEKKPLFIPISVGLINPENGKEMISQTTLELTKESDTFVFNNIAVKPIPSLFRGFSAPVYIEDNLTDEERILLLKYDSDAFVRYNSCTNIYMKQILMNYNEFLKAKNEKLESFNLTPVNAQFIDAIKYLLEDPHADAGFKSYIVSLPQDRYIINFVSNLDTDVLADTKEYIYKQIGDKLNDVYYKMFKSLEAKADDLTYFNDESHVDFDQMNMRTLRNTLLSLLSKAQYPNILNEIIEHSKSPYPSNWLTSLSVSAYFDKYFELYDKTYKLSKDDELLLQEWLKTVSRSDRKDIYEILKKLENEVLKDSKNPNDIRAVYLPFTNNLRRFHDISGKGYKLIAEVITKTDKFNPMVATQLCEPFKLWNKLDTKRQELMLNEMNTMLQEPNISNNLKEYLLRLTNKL

[17] = biological target: T7, Carboxy-terminal domain RNA polymerase II polypeptide A small phosphatase 1 (Homo sapiens, UniProt Q9GZU7); assay: inhibitors of CTDSP1, concentration-response testing, biochemical assay, absorbance-based, actives from ultra-high-throughput screening (AID 540297); format: functional
T7 sequence (Q9GZU7 whole entry): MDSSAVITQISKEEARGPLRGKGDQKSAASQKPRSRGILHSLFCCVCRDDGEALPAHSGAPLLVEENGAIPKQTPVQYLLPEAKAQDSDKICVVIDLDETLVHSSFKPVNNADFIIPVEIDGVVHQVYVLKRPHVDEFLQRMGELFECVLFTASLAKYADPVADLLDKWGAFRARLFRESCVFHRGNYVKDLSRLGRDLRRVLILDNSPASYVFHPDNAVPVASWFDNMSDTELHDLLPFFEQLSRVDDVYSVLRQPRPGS

Chain of DNA dC->dU-editing enzyme APOBEC-3A (P31941 whole entry): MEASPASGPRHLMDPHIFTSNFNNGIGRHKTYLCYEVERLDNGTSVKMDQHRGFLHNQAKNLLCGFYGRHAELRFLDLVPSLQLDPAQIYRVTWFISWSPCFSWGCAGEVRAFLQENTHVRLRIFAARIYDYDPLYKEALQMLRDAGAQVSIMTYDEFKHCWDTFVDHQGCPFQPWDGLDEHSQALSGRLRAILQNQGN
Chain of Ion channel NompC (Q7T1G6 whole entry): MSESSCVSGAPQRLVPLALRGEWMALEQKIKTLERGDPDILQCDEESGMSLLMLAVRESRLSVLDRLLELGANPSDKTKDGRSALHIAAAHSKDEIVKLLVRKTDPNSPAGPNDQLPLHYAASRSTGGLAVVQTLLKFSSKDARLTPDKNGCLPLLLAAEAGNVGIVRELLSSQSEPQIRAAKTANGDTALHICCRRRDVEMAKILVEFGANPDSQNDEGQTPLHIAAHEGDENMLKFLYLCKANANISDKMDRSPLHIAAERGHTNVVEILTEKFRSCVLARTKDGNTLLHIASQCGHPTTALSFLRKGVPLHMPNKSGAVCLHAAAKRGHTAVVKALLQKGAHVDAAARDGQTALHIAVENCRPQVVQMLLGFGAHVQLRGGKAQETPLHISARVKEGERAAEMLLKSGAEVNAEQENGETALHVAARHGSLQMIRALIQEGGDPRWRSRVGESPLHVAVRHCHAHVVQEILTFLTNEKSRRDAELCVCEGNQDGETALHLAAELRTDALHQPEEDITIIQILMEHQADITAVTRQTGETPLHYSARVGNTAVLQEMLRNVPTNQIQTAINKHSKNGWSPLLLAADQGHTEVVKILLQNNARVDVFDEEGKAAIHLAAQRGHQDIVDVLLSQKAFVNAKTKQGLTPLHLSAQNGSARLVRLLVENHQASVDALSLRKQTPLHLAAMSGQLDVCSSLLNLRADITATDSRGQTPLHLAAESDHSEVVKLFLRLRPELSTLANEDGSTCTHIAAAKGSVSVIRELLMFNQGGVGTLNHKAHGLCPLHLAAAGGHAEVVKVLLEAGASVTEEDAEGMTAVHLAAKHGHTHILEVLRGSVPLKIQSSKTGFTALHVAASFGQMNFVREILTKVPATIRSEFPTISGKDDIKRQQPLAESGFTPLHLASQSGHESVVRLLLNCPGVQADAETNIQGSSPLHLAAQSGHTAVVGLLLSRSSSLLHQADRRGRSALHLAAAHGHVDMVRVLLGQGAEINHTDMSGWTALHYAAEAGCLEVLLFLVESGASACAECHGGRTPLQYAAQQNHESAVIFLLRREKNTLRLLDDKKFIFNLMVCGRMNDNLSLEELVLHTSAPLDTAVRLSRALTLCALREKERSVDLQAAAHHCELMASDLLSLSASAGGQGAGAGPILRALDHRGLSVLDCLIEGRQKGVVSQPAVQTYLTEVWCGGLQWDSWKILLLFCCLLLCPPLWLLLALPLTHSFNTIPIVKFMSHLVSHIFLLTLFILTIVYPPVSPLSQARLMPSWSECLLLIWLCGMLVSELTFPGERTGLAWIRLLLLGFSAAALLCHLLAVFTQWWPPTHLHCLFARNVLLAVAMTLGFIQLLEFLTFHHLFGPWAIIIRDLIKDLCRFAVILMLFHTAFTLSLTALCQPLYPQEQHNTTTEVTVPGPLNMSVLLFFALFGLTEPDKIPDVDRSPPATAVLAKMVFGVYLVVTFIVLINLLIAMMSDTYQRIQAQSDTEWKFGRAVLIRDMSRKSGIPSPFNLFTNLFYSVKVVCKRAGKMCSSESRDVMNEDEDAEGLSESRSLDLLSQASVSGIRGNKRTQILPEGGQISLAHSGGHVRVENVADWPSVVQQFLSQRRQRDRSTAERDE
Chain of DNA dC->dU-editing enzyme APOBEC-3G (Q9HC16 whole entry): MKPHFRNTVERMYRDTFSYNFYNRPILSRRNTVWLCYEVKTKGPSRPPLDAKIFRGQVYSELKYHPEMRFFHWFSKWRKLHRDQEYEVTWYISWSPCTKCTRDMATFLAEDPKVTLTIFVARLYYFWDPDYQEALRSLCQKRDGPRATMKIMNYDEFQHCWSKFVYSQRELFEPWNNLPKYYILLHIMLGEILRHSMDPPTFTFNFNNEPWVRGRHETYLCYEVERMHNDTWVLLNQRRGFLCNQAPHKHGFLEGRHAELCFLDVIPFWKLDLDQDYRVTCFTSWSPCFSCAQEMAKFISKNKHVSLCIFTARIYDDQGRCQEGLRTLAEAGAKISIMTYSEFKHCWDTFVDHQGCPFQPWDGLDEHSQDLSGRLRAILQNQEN
T5 sequence (P49327 whole entry, the tested form may be a part): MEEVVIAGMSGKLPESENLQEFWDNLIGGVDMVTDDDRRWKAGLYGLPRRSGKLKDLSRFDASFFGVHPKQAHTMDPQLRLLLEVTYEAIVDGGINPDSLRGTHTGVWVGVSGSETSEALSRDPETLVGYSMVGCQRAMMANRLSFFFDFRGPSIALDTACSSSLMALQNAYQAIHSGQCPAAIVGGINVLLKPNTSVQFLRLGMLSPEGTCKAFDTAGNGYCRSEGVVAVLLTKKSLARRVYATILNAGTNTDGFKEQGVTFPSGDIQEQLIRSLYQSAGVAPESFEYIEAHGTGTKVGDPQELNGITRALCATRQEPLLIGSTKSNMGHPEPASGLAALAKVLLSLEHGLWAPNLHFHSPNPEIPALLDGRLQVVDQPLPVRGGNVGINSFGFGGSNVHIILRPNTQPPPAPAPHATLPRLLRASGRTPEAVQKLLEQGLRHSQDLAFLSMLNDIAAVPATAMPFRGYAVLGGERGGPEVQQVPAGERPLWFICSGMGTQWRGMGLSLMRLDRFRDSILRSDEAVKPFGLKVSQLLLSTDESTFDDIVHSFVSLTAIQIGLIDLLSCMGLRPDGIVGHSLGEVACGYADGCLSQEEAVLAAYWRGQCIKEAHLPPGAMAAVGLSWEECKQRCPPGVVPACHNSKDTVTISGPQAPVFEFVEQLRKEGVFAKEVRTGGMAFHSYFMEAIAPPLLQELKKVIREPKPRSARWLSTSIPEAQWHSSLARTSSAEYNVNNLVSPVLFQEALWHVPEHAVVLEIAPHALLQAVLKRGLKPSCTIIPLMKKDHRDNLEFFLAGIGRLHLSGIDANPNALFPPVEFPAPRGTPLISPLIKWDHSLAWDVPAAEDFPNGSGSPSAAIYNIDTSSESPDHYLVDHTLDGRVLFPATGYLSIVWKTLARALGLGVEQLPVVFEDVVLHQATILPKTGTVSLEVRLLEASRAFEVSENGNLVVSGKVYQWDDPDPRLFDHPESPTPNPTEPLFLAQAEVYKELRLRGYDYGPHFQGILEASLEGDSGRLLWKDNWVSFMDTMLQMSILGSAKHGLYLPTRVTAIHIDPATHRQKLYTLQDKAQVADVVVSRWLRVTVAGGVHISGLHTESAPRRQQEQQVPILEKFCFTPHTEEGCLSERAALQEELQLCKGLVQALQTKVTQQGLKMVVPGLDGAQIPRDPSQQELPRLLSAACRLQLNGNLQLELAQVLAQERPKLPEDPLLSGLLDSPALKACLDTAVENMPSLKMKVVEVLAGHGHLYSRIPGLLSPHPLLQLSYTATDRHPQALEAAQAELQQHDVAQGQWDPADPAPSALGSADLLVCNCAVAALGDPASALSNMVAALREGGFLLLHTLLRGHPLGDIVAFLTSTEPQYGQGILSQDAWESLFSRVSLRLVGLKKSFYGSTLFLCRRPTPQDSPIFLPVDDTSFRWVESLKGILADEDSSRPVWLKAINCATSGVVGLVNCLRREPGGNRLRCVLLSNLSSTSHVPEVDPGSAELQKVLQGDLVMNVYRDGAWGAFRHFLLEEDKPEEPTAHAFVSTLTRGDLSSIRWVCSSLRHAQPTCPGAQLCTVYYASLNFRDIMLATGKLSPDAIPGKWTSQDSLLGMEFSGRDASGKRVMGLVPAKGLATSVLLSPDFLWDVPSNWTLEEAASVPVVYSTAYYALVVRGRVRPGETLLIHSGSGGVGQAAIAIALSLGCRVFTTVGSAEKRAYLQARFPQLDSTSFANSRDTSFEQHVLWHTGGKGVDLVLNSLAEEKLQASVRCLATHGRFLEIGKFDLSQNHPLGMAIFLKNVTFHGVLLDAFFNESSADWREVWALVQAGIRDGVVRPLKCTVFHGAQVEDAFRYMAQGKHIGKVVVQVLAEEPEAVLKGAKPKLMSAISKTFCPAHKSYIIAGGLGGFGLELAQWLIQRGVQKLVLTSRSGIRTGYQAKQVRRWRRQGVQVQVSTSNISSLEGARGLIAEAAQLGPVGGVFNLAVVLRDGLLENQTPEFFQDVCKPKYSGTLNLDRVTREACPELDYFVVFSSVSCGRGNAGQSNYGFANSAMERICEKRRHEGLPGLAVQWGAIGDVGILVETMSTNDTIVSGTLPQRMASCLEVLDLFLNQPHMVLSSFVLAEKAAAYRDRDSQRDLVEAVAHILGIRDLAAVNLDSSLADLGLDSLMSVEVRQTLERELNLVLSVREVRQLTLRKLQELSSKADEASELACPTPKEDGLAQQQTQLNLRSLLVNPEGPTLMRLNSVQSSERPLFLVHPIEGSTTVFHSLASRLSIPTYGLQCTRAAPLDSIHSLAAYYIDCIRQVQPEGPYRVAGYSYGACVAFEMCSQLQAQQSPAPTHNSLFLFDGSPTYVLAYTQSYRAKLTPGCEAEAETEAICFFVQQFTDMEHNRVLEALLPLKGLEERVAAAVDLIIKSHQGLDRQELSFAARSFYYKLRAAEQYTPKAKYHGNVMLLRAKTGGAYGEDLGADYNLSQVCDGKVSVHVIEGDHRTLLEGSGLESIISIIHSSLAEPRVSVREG
T1 sequence (P65502 whole entry): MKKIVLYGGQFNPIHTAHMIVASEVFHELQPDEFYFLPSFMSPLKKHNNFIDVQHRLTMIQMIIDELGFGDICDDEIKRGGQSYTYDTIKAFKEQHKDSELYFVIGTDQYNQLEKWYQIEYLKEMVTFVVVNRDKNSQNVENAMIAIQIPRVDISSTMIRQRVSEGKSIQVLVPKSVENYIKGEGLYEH

SMILES: Cc1c([N+](=O)[O-])cc(N2C(=O)C=CC2=O)cc1[N+](=O)[O-]
- IC50 (Beta-galactosidase): > 66.6 µM (inactive)
- IC50 [1]: 3.77 µM (active)
- IC50 [2]: 6.33 µM (active)

SMILES: COc1ccc(/C=N/NC(=O)C(C)Sc2ccccn2)cc1[N+](=O)[O-] (stereo not given)
- IC50 [3]: 7.71 µM (active)
- IC50 [4]: 6.02 µM (active)

SMILES: COc1ccc(C2=NN3C(C2)c2ccccc2OC3c2cccs2)cc1 (stereo not given)
- EC50 [5]: > 50 µM (active)

SMILES: CC(=O)Nc1ccc(NC(=O)CCn2c(=S)oc3ccccc32)cc1
- IC50 (Coagulation factor XII): > 50 µM (inactive)

SMILES: COCCN(C(=O)COC(=O)CNC(=O)c1cccs1)c1c(N)n(Cc2ccccc2)c(=O)[nH]c1=O
- IC50 [3]: 10.8 µM (active)
- IC50 [4]: 8.35 µM (active)

SMILES: O=C(CN1CCCC1)Nc1ccc(-c2nc3cc(NC(=O)CN4CCCC4)ccc3o2)cc1
- EC50 [5]: > 50 µM (active)
- EC50 (cells [6]): > 350 µM (not active)
- EC50 (cells [7]): > 350 µM (not active)
- AC50 [8]: 12.5 µM (active)

SMILES: C[N+]12CN3CN(CN(C3)C1)C2
- EC50 [5]: > 50 µM (active)

SMILES: CCN1CCN(S(=O)(=O)c2ccc(Cl)c(C(=O)Nc3cc(Cl)ccc3N3CCOCC3)c2)CC1
- IC50 [3]: 5.78 µM (active)
- IC50 [4]: 5.15 µM (active)

SMILES: Cc1cccc(CC2CC(=O)N(C3CCCCC3)C2=O)c1 (stereo not given)
- EC50 (Mucolipin-3): 3.41 µM (active)
- EC50 (Ion channel NompC): > 29.9 µM (not active)

SMILES: O=C(N/N=C/c1ccccn1)c1ccccc1
- IC50 (cells [9]): > 50 µM (active)
- CC50 [10]: > 20 µM (active)

SMILES: Brc1cccc(/C=N/Nc2nn[nH]n2)c1
- IC50 (Coagulation factor XII): > 50 µM (inactive)

SMILES: CN(C)/C=N/c1ncc(C(=O)c2ccc(Cl)cc2)s1
- EC50 [5]: > 50 µM (active)

SMILES: CC1CCCC(C)N1C(=O)CN1CCN(c2nc(-c3ccc(F)cc3)cs2)CC1 (stereo not given)
- EC50 (Mucolipin-3): 27.4 µM (not active)
- EC50 (Ion channel NompC): > 29.9 µM (not active)

SMILES: CCOc1ccc(NC(=O)c2ccccc2NS(=O)(=O)c2ccc(F)cc2)c([N+](=O)[O-])c1
- IC50 (HEK293 [11]): 19 µM (active)
- IC50 (HEK293 [12]): 11.8 µM (inactive)
- EC50 (Mucolipin-3): 5.29 µM (active)
- EC50 (Ion channel NompC): > 29.9 µM (not active)
- EC50 (HEK293 [13]): 4.21 µM (active)
- IC50 (HEK293 [14]): > 20 µM (inactive)

SMILES: O=C(O)c1cc(-c2ccc(/C=N/NC(=S)Nc3ccccc3)o2)ccc1Cl
- IC50 (Fatty acid synthase [15]): 16.1 µM (active)
- IC50 (Fatty acid synthase [16]): 15.8 µM (active)
- IC50 (Aminopeptidase N): 31.2 µM (active)
- IC50 [17]: 12.1 µM (active)

SMILES: CC1CCCCC1NC(=O)CSc1nnc(-c2ccccc2)n1N (stereo not given)
- IC50 (Aminopeptidase N): 46.8 µM (active)

From ChEMBL document CHEMBL1201862, “PubChem BioAssay data set” (2004)
